Like-named read-outs stand apart in the source and are kept apart here.
Experiments:
Type in all cases: cell-based
BRD4 [1] = target: T1, BRD4 (Homo sapiens, UniProt O60885); experiment: BRD4 protein degradation by western blot in MDA-MB-231 cells; set-up: BRD4 expressed in cells; endogenous in cells; host or cells: MDA-MB-231; conditions: MDA-MB-231, 24 hours; for DC50: 50% inhibition of protein expression, read-out: DC50 of BRD4-targeted PROTAC
Description: (§1) Human breast cancer cell line [MDA-MB-231] was cultured in RPMI medium with 10% petal bovine serum, penicillin [100 U/ml] and streptomycin [[…]]. The synthesized compound was prepared as a stock solution of 10 mM or 50 mM dissolved in DMSO [dimethyl sulfoxide], and it was sequentially diluted to treat the cell line.
To evaluate the PROTAC's degradation ability to BRD4 expressed in cells, the cells were aliquoted into a 6 well plate at a concentration of 5×10^5 cells/ml, and then the sample was treated for 24 hours. In order to conduct western blotting assay to confirm protein expression, the cell treated with the compound was treated for 30 minutes with 70 μL of RIPA buffer wherein protease inhibitor is added. Then, cell lysate was collected on ice using a scraper and centrifuged at 4° C. 15,000 rpm for 30 minutes to obtain a supernatant containing protein. Then, SDS-PAGE is conducted for 10 μg of protein per each sample, and the protein is transferred to a membrane. The protein is reacted with antibodies of anti-BRD4, anti-tubulin and anti-GAPDH at 4° C. for 16 hours, and then, reacted with secondary antibodies at room temperature for 1 hour. The protein expression is confirmed using SUPERSIGNAL™ WEST PICO PLUS chemiluminescence substrate and image analyzer. The protein expression was normalized based on the expression value of β-tublin or GAPDH. The amount of protein expression in each sample was measured in % based on the sample treated with 0.1% DMSO vehicle which was set to 100%. The amount of protein expression was quantified using the IMAGE J PROGRAM. The change in the amount of protein expression due to the treatment of compound (DC50: the concentration of compounds where the 50% inhibition of protein expression is achieved) was calculated using […] PRISM 8.0 software.

[2] = test system: Human breast cancer cell line [MDA-MB-231]; experiment: Anti-proliferative activity (WST-8) of BRD4 targeted PROTAC in MDA-MB-231; conditions: Homo sapiens, MDA-MB-231, 72 hours
Description: as §1
In order to observe inhibition of cell growth, cells were aliquoted into concentrations of 5,000 cells/well at 96 well plates, and then were treated with samples prepared at various concentrations for 72 hours. The cell survival was calculated by steps of adding in each well […] of water soluble tetrazolium salt (WST-8) which produces formazon in response to dehydrogenase present in the electron transport chain in mitochondria, incubating for 2 hours, measuring the absorbance at 450 nm, and calculating by GraphicPad Prism 8.0 software.

BRD4 [3] = target: T1, BRD4; experiment: BRD4 degradation by western blot in A549 cells; set-up: BRD4 expressed in cells; endogenous in cells
Description: The human lung cancer cell line A549 was purchased from the Korean Cell Line Bank.
5×10^5 cells were seeded for each well of the 6 well plate (SPL company), and the cells were cultured with a total of 1.5 mL of the culture medium volume. The cultured cells were treated with various concentrations (0 nM, 0.1 nM, 0.3 nM, 1 nM, 3 nM, 10 nM, 30 nM, 100 nM, 300 nM, 1000 nM, 3000 nM, 10000 nM) of PROTAC compound according to the present invention and cultured for 24 hours.
For cell lysis, a lysis buffer was added and cell lysate was obtained using a cell scraper.
Specifically, cells were treated with 70 μl of 1×RIPA buffer containing protease inhibitors. Cell lysate was collected on ice using a scraper and incubated for 30 minutes. Then, cells were centrifuged at 4° C. 15,000 rpm for 30 minutes to obtain a cell lysate.
The standard curve was obtained using BCA assay, and the protein mass in the lysate was quantified by substituting the standard curve. The mixture was incubated at 37° C. for 30 minutes using a sample solution of 1 μl and a BCA solution of 200 μl. The absorbance was measured at 562 nm. Samples were prepared by adding a sample buffer to reach 10 μg per well.
SDS-PAGE was conducted by setting a running time of 70 minutes at 110 V in a 4-15% Mini-PROTEAN TGX stain-free gel (15 wells). A transfer was conducted using a trans-blot turbo transfer system (Bio-rad). Blocking was conducted using a blocking-grade blocker (Bio-rad) for 1 hour. Then, it was washed with 1×TBS containing 0.1% tween 20, and reacted with anti-BRD4 antibody (1:3000) or anti-beta-tubulin antibody (1:3000) in bovine serum albumin as a primary antibody at 4° C. for 16 hours. After washing three times for 10 minutes with 1×TBS containing 0.1% tween 20, it was reacted with anti-rabbit antibody (1:10000) in the blotting-grade blocker as a secondary antibody at room temperature for 1 hour. Then, after washing three times for 10 minutes with 1×TBS containing 0.1% tween 20, detection was conducted with SUPERSIGNAL™ WEST PICO PLUS chemiluminescence substrate.
For result analysis, final blot data were obtained using an image analyzer (GE).
DC50^1): DC50 value is calculated by comparing band intensity with that of a sample which is not treated with a PROTAC compound as a controlled group.
DC50^2): DC50 value is calculated by comparing the band intensity relative to that of beta-tubulin with that of the controlled group.

[4] = WST-8, read-out: IC50 of BRD4-targeted PROTAC (cell proliferation)
[5] = read-out: concentration at which cancer cell proliferation is effectively inhibited
[6] = A549, 24 hours; band intensity compared with untreated control; read-out: DC50 1)
[7] = A549, 24 hours; band intensity relative to beta-tubulin compared with control; read-out: DC50 2)

| BRD4 degradation (in words) (BRD4 [1]) | DC50 (BRD4 [1]) [nM] | IC50 [2, 4] [nM] | IC50 [2, 5] [nM] | DC50 (BRD4 [3]; [6]) [nM] | DC50 (BRD4 [3]; [7]) [nM] | Compound |
| --- | --- | --- | --- | --- | --- | --- |
| effectively degraded | 2.6 | 32.2 | < 250 | 11.3 | 10.9 | Cc1sc2c(c1C)C(c1ccc(Cl)cc1)=N[C@@H](CC(=O)Nc1cccc(OCCOCCOCCNc3cccc4cnn(C5CCC(=O)NC5=O)c(=O)c34)c1)c1nnc(C)n1-2 (stereo partly drawn) [Ex. 23, 2-((S)-4-(4-chlorophenyl)-2,3,9-trimethyl-6H-thieno[3,2-f][1,2,4]triazolo[4,3-a][1,4]diazepin-6-yl)-N-(3-(2-(2-(2-((3-(2,6-dioxopiperidin-3-yl)-4-oxo-3,4-dihydrophthalazin-5-yl)amino)ethoxy)ethoxy)ethoxy)phenyl)acetamide] |
| effectively degraded | 3.3 | 33.1 | < 250 | 25.3 | 299 | Cc1sc2c(c1C)C(c1ccc(Cl)cc1)=N[C@@H](CC(=O)Nc1ccc(OCCOCCOCCOCCNc3ccc4c(=O)n(C5CCC(=O)NC5=O)ncc4c3)cc1)c1nnc(C)n1-2 (stereo partly drawn) [Ex. 28, 2-((S)-4-(4-chlorophenyl)-2,3,9-trimethyl-6H-thieno[3,2-f][1,2,4]triazolo[4,3-a][1,4]diazepin-6-yl)-N-(4-(2-(2-(2-(2-((2-(2,6-dioxopiperidin-3-yl)-1-oxo-1,2-dihydrophthalazin-6-yl)amino)ethoxy)ethoxy)ethoxy)ethoxy)phenyl)acetamide] |
| – | – | 232 | – | 56.9 | 49.6 | Cc1sc2c(c1C)C(c1ccc(Cl)cc1)=N[C@@H](CC(=O)Nc1ccc(OCCOCCOCCNc3ccc4c(=O)n(C5CCC(=O)NC5=O)ncc4c3)cc1)c1nnc(C)n1-2 (stereo partly drawn) [Ex. 25, 2-((S)-4-(4-chlorophenyl)-2,3,9-trimethyl-6H-thieno[3,2-f][1,2,4]triazolo[4,3-a][1,4]diazepin-6-yl)-N-(4-(2-(2-(2-((2-(2,6-dioxopiperidin-3-yl)-1-oxo-1,2-dihydrophthalazin-6-yl)amino)ethoxy)ethoxy)ethoxy)phenyl)acetamide] |
| – | – | 640 | – | 9.21 | 11.9 | Cc1sc2c(c1C)C(c1ccc(Cl)cc1)=N[C@@H](CC(=O)Nc1ccc(OCCOCCOCCOCCNc3cccc4cnn(C5CCC(=O)NC5=O)c(=O)c34)cc1)c1nnc(C)n1-2 (stereo partly drawn) [Ex. 27, 2-[(9S)-7-(4-chlorophenyl)-4,5,13-trimethyl-3-thia-1,8,11,12-tetraazatricyclo[8.3.0.0^2,6]trideca-2(6),4,7,10,12-pentaen-9-yl]-N-[4-(2-{2-[2-(2-{[3-(2,6-dioxopiperidin-3-yl)-4-oxo-3,4-dihydrophthalazin-5-yl]amino}ethoxy)ethoxy]ethoxy}ethoxy)phenyl]acetamide] |
| – | – | 126 | – | 22 | 568 | Cc1sc2c(c1C)C(c1ccc(Cl)cc1)=N[C@@H](CC(=O)Nc1ccc(OCCOCCOCCNc3ccc4cnn(C5CCC(=O)NC5=O)c(=O)c4c3)cc1)c1nnc(C)n1-2 (stereo partly drawn) [Ex. 26, 2-((S)-4-(4-chlorophenyl)-2,3,9-trimethyl-6H-thieno[3,2-f][1,2,4]triazolo[4,3-a][1,4]diazepin-6-yl)-N-(4-(2-(2-(2-((3-(2,6-dioxopiperidin-3-yl)-4-oxo-3,4-dihydrophthalazin-6-yl)amino)ethoxy)ethoxy)ethoxy)phenyl)acetamide] |
